In ChEMBL document CHEMBL3885861, “Open TG-GATES”:

Organism: Rattus norvegicus
Assay: Open TG-GATES - Regimen: Single
Format: toxicity, organism-based, Sprague-Dawley
Set-up: regimen Single, gender Male, age 6 weeks
Settings: in vivo, po, 2 mg/kg, route gavage, dose level Middle; for APTT / Bas / Eos / Fbg / Hb / Ht / Lym / MCH / MCHC / MCV / Mono / Neu / PT / Plat / RBC / Ret / WBC: tissue Blood; for KIDNEY_L / KIDNEY_R / KIDNEY_TOTAL: tissue Kidney; for LIVER: tissue Liver; for A/G / ALP / ALT / AST / BUN / CRE / Ca / Cl / DBIL / GLC / IP / K / LDH / Na / PL / RALB / TBIL / TC / TG / TP / gamma-GTP: tissue Plasma

## O=NN(CCCl)C(=O)NC1CCCCC1 [LOMUSTINE]
3 h
  TERMINAL_BW: 208.7 g
  APTT: 16.4 s
  Bas: 0%
  Eos: 0.4%
  Fbg: 227.8 mg/dL
  Hb: 12.8 g/dL
  Ht: 38.3%
  Lym: 81.8%
  MCH: 22.5 pg
  MCHC: 33.4%
  MCV: 67.4 fL
  Mono: 7.2%
  Neu: 10.2%
  PT: 11.6 s
  Plat: 102.8 x10_4/uL
  RBC: 568.2 x10_4/ul
  Ret: 9.5%
  WBC: 127.7 x10_2/uL
  KIDNEY_L: 0.9 g
  KIDNEY_R: 1 g
  KIDNEY_TOTAL: 1.9 g
  LIVER: 10 g
  A/G: 1.8
  ALP: 890.2 IU/L
  ALT: 35.6 IU/L
  AST: 70.8 IU/L
  BUN: 14.2 mg/dL
  CRE: 0.5 mg/dL
  Ca: 11.4 mg/dL
  Cl: 104.8 meq/L
  DBIL: 0.052 mg/dL
  GLC: 187.6 mg/dL
  IP: 9.9 mg/dL
  K: 4.6 meq/L
  LDH: 104.6 IU/L
  Na: 139.4 meq/L
  PL: 127.4 mg/dL
  RALB: 3.5 g/dL
  TBIL: 0.3 mg/dL
  TC: 75.8 mg/dL
  TG: 41.4 mg/dL
  TP: 5.5 g/dL
  gamma-GTP: 1.4 IU/L
6 h
  TERMINAL_BW: 201.7 g
  APTT: 16.8 s
  Bas: 0%
  Eos: 0.2%
  Fbg: 217.4 mg/dL
  Hb: 13.5 g/dL
  Ht: 40.4%
  Lym: 84.2%
  MCH: 21.9 pg
  MCHC: 33.4%
  MCV: 65.6 fL
  Mono: 4.2%
  Neu: 11.4%
  PT: 12.2 s
  Plat: 103.8 x10_4/uL
  RBC: 616.2 x10_4/ul
  Ret: 9.4%
  WBC: 137.8 x10_2/uL
  KIDNEY_L: 1 g
  KIDNEY_R: 1 g
  KIDNEY_TOTAL: 1.9 g
  LIVER: 8.7 g
  A/G: 1.9
  ALP: 941.6 IU/L
  ALT: 33.6 IU/L
  AST: 66.8 IU/L
  BUN: 11.6 mg/dL
  CRE: 0.5 mg/dL
  Ca: 11 mg/dL
  Cl: 104.2 meq/L
  DBIL: 0.02 mg/dL
  GLC: 187.6 mg/dL
  IP: 10.8 mg/dL
  K: 5 meq/L
  LDH: 80.8 IU/L
  Na: 141.2 meq/L
  PL: 140 mg/dL
  RALB: 3.5 g/dL
  TBIL: 0.3 mg/dL
  TC: 79.6 mg/dL
  TG: 49.2 mg/dL
  TP: 5.5 g/dL
  gamma-GTP: 1.8 IU/L
9 h
  TERMINAL_BW: 198 g
  APTT: 17 s
  Bas: 0%
  Eos: 0.8%
  Fbg: 226 mg/dL
  Hb: 13.1 g/dL
  Ht: 40.1%
  Lym: 78.6%
  MCH: 21.4 pg
  MCHC: 32.7%
  MCV: 65.6 fL
  Mono: 6.2%
  Neu: 14.6%
  PT: 12.2 s
  Plat: 103.3 x10_4/uL
  RBC: 611.2 x10_4/ul
  Ret: 8.8%
  WBC: 71.6 x10_2/uL
  KIDNEY_L: 0.9 g
  KIDNEY_R: 0.9 g
  KIDNEY_TOTAL: 1.8 g
  LIVER: 8.4 g
  A/G: 2.3
  ALP: 731 IU/L
  ALT: 28.6 IU/L
  AST: 67.6 IU/L
  BUN: 11 mg/dL
  CRE: 0.5 mg/dL
  Ca: 10.7 mg/dL
  Cl: 105.4 meq/L
  DBIL: 0.024 mg/dL
  GLC: 191 mg/dL
  IP: 10.8 mg/dL
  K: 5 meq/L
  LDH: 93.8 IU/L
  Na: 139.4 meq/L
  PL: 136.2 mg/dL
  RALB: 3.9 g/dL
  TBIL: 0.3 mg/dL
  TC: 81.6 mg/dL
  TG: 30.8 mg/dL
  TP: 5.5 g/dL
  gamma-GTP: 1.8 IU/L
24 h
  TERMINAL_BW: 218.8 g
  APTT: 16.9 s
  Bas: 0%
  Eos: 0.4%
  Fbg: 207.4 mg/dL
  Hb: 12.8 g/dL
  Ht: 38.5%
  Lym: 80.2%
  MCH: 22.3 pg
  MCHC: 33.3%
  MCV: 67.1 fL
  Mono: 7%
  Neu: 12.6%
  PT: 12.1 s
  Plat: 96.4 x10_4/uL
  RBC: 574.2 x10_4/ul
  Ret: 9.1%
  WBC: 121.6 x10_2/uL
  KIDNEY_L: 1 g
  KIDNEY_R: 1 g
  KIDNEY_TOTAL: 2 g
  LIVER: 11.1 g
  A/G: 2.3
  ALP: 839.8 IU/L
  ALT: 38.8 IU/L
  AST: 62.4 IU/L
  BUN: 16.8 mg/dL
  CRE: 0.5 mg/dL
  Ca: 11.3 mg/dL
  Cl: 104.4 meq/L
  DBIL: 0.038 mg/dL
  GLC: 195.8 mg/dL
  IP: 8.7 mg/dL
  K: 4.8 meq/L
  LDH: 87.4 IU/L
  Na: 137.8 meq/L
  PL: 157.2 mg/dL
  RALB: 4 g/dL
  TBIL: 0.3 mg/dL
  TC: 86.8 mg/dL
  TG: 80.6 mg/dL
  TP: 5.7 g/dL
  gamma-GTP: 1.4 IU/L
